Numbering of substitutions follows the chain as printed.
Experiments:
Type in all cases: cell-based
[1] = target: T1, α-Gal A mutant form V339A (Homo sapiens, UniProt P06280, V339A); test: α-Gal A activity in lysates of transfected HEK-293 cells, V339A
T1 construct: expressed in transfected cells; host or cells: HEK-293
T1 sequence (P06280 32-429 V339A): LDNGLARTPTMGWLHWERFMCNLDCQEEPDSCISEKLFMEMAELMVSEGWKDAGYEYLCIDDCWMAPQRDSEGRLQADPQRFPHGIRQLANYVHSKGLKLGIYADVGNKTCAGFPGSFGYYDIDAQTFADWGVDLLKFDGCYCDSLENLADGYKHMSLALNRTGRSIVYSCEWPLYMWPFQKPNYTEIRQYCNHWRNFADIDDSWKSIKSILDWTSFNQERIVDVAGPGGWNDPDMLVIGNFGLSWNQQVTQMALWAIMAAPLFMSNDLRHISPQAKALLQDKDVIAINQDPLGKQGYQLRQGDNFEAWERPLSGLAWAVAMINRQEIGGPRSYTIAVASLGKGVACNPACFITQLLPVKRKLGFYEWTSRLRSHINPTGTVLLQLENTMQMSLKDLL
Description: (§1) Baseline and 10 μM migalastat α-Gal A activity: Differences in the α-Gal A activity between lysates incubated in the absence and presence of 10 μM migalastat were determined using a one-tailed, Mann Whitney U test; an increase at 10 μM migalastat with a p<0.05 was considered significant.
(§2) 10 μM migalastat α-Gal A activity (% WT)=(α-Gal A activity in mutant transfected cell lysates incubated with 10 μM migalastat÷α-Gal A activity in wild-type transfected cell lysates without migalastat)*100.
(§3) Absolute increase (% WT)=is the 10 μM migalastat α-Gal A activity (% WT) minus the baseline α-Gal A activity (% WT).
(§4) Relative increase is the 10 μM migalastat α-Gal A activity in mutant transfected cell lysates÷baseline α-Gal A activity in mutant transfected cell lysates incubated without migalastat.

[2] = target: T2, α-Gal A mutant form V22G (Homo sapiens, UniProt P06280); test: α-Gal A activity in lysates of transfected HEK-293 cells, V22G
T2 construct: expressed in transfected cells; host or cells: HEK-293
T2 sequence (P06280 32-429): T1 sequence (P06280 32-429 V339A) with A308V
Description: as §1, §2, §3, §4

[3] = target: T3, α-Gal A mutant form D33H (Homo sapiens, UniProt P06280, D33H); test: α-Gal A activity in lysates of transfected HEK-293 cells, D33H
T3 construct: expressed in transfected cells; host or cells: HEK-293
T3 sequence (P06280 32-429 D33H): T1 sequence (P06280 32-429 V339A) with D2H, A308V
Description: as §1, §2, §3, §4

[4] = target: T4, α-Gal A mutant form T412P (Homo sapiens, UniProt P06280, T412P); test: α-Gal A activity in lysates of transfected HEK-293 cells, T412P
T4 construct: expressed in transfected cells; host or cells: HEK-293
T4 sequence (P06280 32-429 T412P): T1 sequence (P06280 32-429 V339A) with A308V, T381P
Description: as §1, §2, §3, §4

[5] = target: T5, α-Gal A mutant form L189F (Homo sapiens, UniProt P06280, L189F); test: α-Gal A activity in lysates of transfected HEK-293 cells, L189F
T5 construct: expressed in transfected cells; host or cells: HEK-293
T5 sequence (P06280 32-429 L189F): T1 sequence (P06280 32-429 V339A) with L158F, A308V
Description: as §1, §2, §3, §4

[6] = 10 μM migalastat minus baseline
[7] = 10 μM migalastat ÷ baseline activity
[8] = HEK-293 lysates, 10 μM migalastat, 5 days, mean ± SEM

## OC[C@H]1NC[C@H](O)[C@@H](O)[C@H]1O [migalastat, (2R,3S,4R,5S)-2-(hydroxymethyl) piperdine-3,4,5-triol]
[1]; [6]
  Absolute increase (% WT): 16.8 % WT
[1]; [7]
  Relative increase: 1.33
[1]; [8]
  10 μM migalastat α-Gal A activity: 25174 ± 2895 nmol/mg/h
  10 μM migalastat α-Gal A activity (% WT): 65.6 ± 4.2 % WT
[2]; [6]
  Absolute increase (% WT): 9.0 % WT
[2]; [7]
  Relative increase: 1.53
[2]; [8]
  10 μM migalastat α-Gal A activity: 7150 ± 700 nmol/mg/h
  10 μM migalastat α-Gal A activity (% WT): 24.6 ± 2.8 % WT
[3]; [6]
  Absolute increase (% WT): 32.7 % WT
[3]; [7]
  Relative increase: 1.93
[3]; HEK-293 lysates, 10 nM migalastat as printed, 5 days, mean ± SEM
  10 nM migalastat α-Gal A activity: 24908 ± 1775 nmol/mg/h
[3]; [8]
  10 μM migalastat α-Gal A activity (% WT): 68.8 ± 4.3 % WT
[4]; [6]
  Absolute increase (% WT): 16.9 % WT
[4]; [7]
  Relative increase: 11.21
[4]; [8]
  10 μM migalastat α-Gal A activity: 7159 ± 459 nmol/mg/h
  10 μM migalastat α-Gal A activity (% WT): 18.6 ± 1.2 % WT
[5]; [6]
  Absolute increase (% WT): 15.3 % WT
[5]; [7]
  Relative increase: 1.22
[5]; [8]
  10 μM migalastat α-Gal A activity: 27388 ± 1605 nmol/mg/h
  10 μM migalastat α-Gal A activity (% WT): 84.6 ± 3.8 % WT
